{
  "source": "patent US8962329B2",
  "about": "“Gene cluster” (Shanghai Institute of Organic Chemistry, Chinese Academy of …, priority 2008, dated 2015)",
  "key": {"SfaA": {"system": "SfaA", "assay": "AMP PPi assay of the putative meta-hydroxylase SfaA expressed in E. coli", "assay_type": "biochemical, Streptomyces sp. A92-308110 (S. flaveolus)", "description": "Traditional phenylalanine/tyrosine/tryptophan hydroxylation systems all rely on an electrophilic substitution reaction to realize hydroxylation in the electron-rich regions of aromatic systems. On the contrary, the meta-hydroxylation of phenylalanine occurs at the relatively electron-poor meta position of phenylalanine. […] The putative meta-hydroxylase, SfaA, was expressed in E. coli and isolated using standard methods."}, "SfaR": {"system": "SfaR", "assay": "in vitro activity of purified His-tagged SfaR (reduction / reductive carboxylation) on acyl substrates", "assay_type": "biochemical, Streptomyces sp A92-309110 (S. flaveolus)", "description": "To validate the central role of SfaR for unusual building block supply in the proposed pathway, we first inactivated sfaR by in-frame deletion. […] Secondly, we heterologously expressed and purified the N-terminal 6× His-tagged SfaR to near homogeneity for in vitro studies. As expected, in the presence of NADPH and bicarbonate, crotonyl-S-CoA (FIG. 7, 4) was efficiently converted by SfaR to the major product ethylmalonyl-S-CoA (FIG. 7, 5) along with the shunt product butyryl-S-CoA (FIG. 7, 7). […] To exclude the possibility that the reaction directly occurs on the ACP, SfaO was expressed and purified as a N-terminal 6×His-tagged derivative. […] Thirdly, to detect the substrate flexibility of SfaR, we synthesized the 5-carbon substrate pentenyl-S-CoA."}, "MLR": {"system": "MLR", "settings": "compared with SFA; cited from earlier work"}},
  "data": [
    {"compound": "CC(=O)NCCSC(=O)C(N)Cc1ccccc1", "note": "(centres unmarked)", "values": [
      {"measurement": "activity of SfaA on the substrate", "setting": "SfaA", "result": "did show activity"}
    ]},
    {"compound": "C/C=C/C(=O)SCCNC(=O)CCNC(=O)[C@H](O)C(C)(C)COP(=O)(O)OP(=O)(O)OC[C@H]1O[C@@H](n2cnc3c(N)ncnc32)[C@H](O)[C@@H]1OP(=O)(O)O", "note": "[crotonyl-S-CoA]", "values": [
      {"measurement": "Km", "setting": "SfaR; substrate crotonyl-S-CoA, SfaR, NADPH", "result": 840, "unit": "µM"}
    ]},
    {"compound": "CC/C=C/C(=O)SCCNC(=O)CCNC(=O)[C@H](O)C(C)(C)COP(=O)(O)OP(=O)(O)OC[C@H]1O[C@@H](n2cnc3c(N)ncnc32)[C@H](O)[C@@H]1OP(=O)(O)O", "note": "[pentenyl-S-CoA]", "values": [
      {"measurement": "Km", "setting": "SfaR; pentenyl-S-CoA in reductively producing pentanoyl-S-CoA", "result": 1400, "unit": "µM"}
    ]},
    {"compound": "N[C@@H](Cc1ccccc1)C(=O)O", "note": "[phenylalanine]", "values": [
      {"measurement": "activity of SfaA on the substrate", "setting": "SfaA", "result": "no activity"}
    ]},
    {"compound": "sanglifehrin B", "values": [
      {"measurement": "immunosuppressive activity in MLR assays", "setting": "MLR", "result": "higher immunosuppressive activity than SFA"}
    ]}
  ]
}
